Experimental data: article PMC8149334 (Cancer Chemotherapy and Pharmacology, 2021)
Blank lines part the entries; values can stand above or below the compound they belong to.

Columns and labels:
P-glycoprotein (P-gp) = details: cited from earlier work
[1] = in vivo
Description: Additional details of the bioanalytical methods are available in the Supplementary Appendix. Serial blood samples were collected in Parts 1 and 2 on day 1 of cycles 1, 2, and 3, and every 3 cycles thereafter (Supplementary Table 1). […] Concentration–time profiles were plotted for each analyte, and individual and mean plasma concentration–time data and pharmacokinetic parameters were summarized using descriptive statistics.
Pharmacokinetic analyses were performed using the validated Phoenix™ WinNonlin® software (v6.2.1; […]). Noncompartmental analysis (model, Plasma; dose, extravascular) was applied for the pharmacokinetic analysis. The pharmacokinetics outputs were created using SAS v9.3 (SAS Institute Inc., Cary, NC, USA). Summary statistics, including N, mean, SD, % coefficient of variation, geometric mean, median, minimum, and maximum, were calculated for plasma concentration of each analyte at each time point and for the derived pharmacokinetic parameters.

SMILES: CNC(=O)c1ccc(N2C(=S)N(c3cnc(C#N)c(C(F)(F)F)c3)C(=O)C23CCC3)cc1F [Apalutamide, apalutamide]
Reduction in AUC0–last of fexofenadine (P-glycoprotein (P-gp); patients with CRPC): 30%

Metabolite-to-parent ratios [1]: below 1
SMILES: O=C(O)c1cccc2cn(-c3ccc(C4CCCNC4)cc3)nc12 (stereo not drawn) [M1]

SMILES: CO[C@H]1/C=C/O[C@@]2(C)Oc3c(C)c(O)c4c(O)c(c(/C=N/N5CCN(C)CC5)c(O)c4c3C2=O)NC(=O)/C(C)=C\C=C\[C@H](C)[C@H](O)[C@@H](C)[C@@H](O)[C@@H](C)[C@H](OC(C)=O)[C@@H]1C [Rifampin]
Decrease in exposure of various P-gp substrates (P-glycoprotein (P-gp); human, not told): ≤ 67%
